For assay [1], the target named is T1, 5-HT2A (Homo sapiens (Human), UniProt P28223). Briefly: Radioligand binding assay, [^3H]5-HT competition, 5-HT2A. To be noted: [^3H]5-HT radioligand, membranes of HEK293 cells expressing recombinant 5-HT2A; Ki from IC50 by Cheng-Prusoff; read-out: 5-HT2A serotonin binding Ki value.
Assay [2] deals with T1, 5-HT2A. The experiment in a line: HTRF IP-One antagonist assay, 5-HT2A.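 Note: clonal line with low receptor density (about 50–70 fmol/mg), 10-point dose-response from 10 µM in 5-fold steps, HTRF detection after 1 hr, triplicate points.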 It is filed as cell-based. The note with it: HEK293 cells stably expressing receptor, inositol phosphate accumulation, 80 nM 5-HT in Assay Buffer. (In TR-FRET formats the signal depends on donor and acceptor labels being close together.)
The next assay has as its target 5-HT2C (Homo sapiens (Human), UniProt P28335). Briefly: HTRF IP-One antagonist assay, 5-HT2C.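 Note: clonal HEK293 line with low 5-HT2C density (10–20 fmol/mg), HTRF detection of IP-One, 10-point dose curves from 10 µM in 5-fold steps, triplicate points.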 It is filed as cell-based. The note with it: HEK293 cells stably expressing receptor, inositol phosphate accumulation, 80 nM 5-HT in Assay Buffer.

Drawing on US20250270172A1, “Pyrimidine Derivatives As Modulators of the 5-HT2A Serotonin Receptor Useful For The Treatment of Disorders Related Thereto” (Arena Pharmaceuticals, Inc., priority 2020, published 2025), this text covers Ki and IC50 for 33 compounds.

As a reminder, the Ki is a dissociation constant, usually derived from enzyme kinetics or from competition with a known ligand. One may read the IC50 as the concentration that gives 50% inhibition. Low readings indicate greater potency in that assay, high ones weaker potency in that assay.

T1 sequence (P28223 whole entry): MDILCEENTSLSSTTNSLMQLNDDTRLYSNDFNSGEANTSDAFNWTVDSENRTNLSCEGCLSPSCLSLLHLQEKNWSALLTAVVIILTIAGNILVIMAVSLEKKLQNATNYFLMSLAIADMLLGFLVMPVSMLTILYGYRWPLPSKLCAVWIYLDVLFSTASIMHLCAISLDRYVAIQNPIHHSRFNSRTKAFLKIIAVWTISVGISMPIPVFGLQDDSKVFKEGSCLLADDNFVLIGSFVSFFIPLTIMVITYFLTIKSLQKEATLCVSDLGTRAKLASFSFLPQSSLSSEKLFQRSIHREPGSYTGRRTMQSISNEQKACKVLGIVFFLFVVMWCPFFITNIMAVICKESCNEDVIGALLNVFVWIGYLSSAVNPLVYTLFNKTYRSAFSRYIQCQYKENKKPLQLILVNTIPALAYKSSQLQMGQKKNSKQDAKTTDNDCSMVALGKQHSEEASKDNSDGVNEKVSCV
Chain of 5-HT2C (P28335 33-458): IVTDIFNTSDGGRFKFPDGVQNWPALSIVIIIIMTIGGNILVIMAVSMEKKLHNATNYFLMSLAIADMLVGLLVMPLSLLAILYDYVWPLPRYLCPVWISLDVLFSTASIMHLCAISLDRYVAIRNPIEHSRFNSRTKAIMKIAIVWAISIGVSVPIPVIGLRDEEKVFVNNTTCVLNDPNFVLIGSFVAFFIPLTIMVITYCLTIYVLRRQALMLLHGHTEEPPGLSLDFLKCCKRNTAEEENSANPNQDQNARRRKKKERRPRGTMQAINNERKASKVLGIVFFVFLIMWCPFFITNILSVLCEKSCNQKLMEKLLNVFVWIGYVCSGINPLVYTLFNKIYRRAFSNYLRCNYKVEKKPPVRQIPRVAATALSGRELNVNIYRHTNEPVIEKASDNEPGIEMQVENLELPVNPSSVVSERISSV

For the compound `COc1cccc(C(=O)Nc2ccc(OCCN3CCCC3)c(-c3c(C)ncnc3C)c2)c1` [Compound 273, N-(3-(4,6-dimethylpyrimidin-5-yl)-4-(2-(pyrrolidin-1-yl)ethoxy)phenyl)-3-methoxybenzamide], on 5-HT2A [1], the Ki is 1.11 nM. In addition, the IC50 amounted to 1.68 nM at 5-HT2A [2] and 100000 nM against 5-HT2C. As for `Cc1ncsc1C(=O)Nc1ccc(OCCN2CCC2)c(-c2c(C)ncnc2C)c1` [Compound 306, N-(4-(2-(azetidin-1-yl)ethoxy)-3-(4,6-dimethylpyrimidin-5-yl)phenyl)-4-methylthiazole-5-carboxamide], the Ki at 5-HT2A [1] stood at 2.65 nM. For the same compound, the IC50 against 5-HT2A [2] is 6.14 nM; against 5-HT2C, 100000 nM. `Cc1ncnc(C)c1-c1cc(NC(=O)Cc2cccc(F)c2)ccc1OCCN1CCC1` [Compound 312, N-(4-(2-(azetidin-1-yl)ethoxy)-3-(4,6-dimethylpyrimidin-5-yl)phenyl)-2-(3-fluorophenyl)acetamide]: at 5-HT2A [1], the Ki stood at 0.813 nM. The IC50 turned out to be 2.38 nM against 5-HT2A [2] and 100000 nM against 5-HT2C. For the compound `Cc1ncnc(C)c1-c1cc(NC(=O)c2cccn2C)ccc1O[C@@H]1CCCNC1` [Compound 416, (R)—N-(3-(4,6-dimethylpyrimidin-5-yl)-4-(piperidin-3-yloxy)phenyl)-1-methyl-1H-pyrrole-2-carboxamide], the Ki at 5-HT2A [1] is 45.3 nM. As to `Cc1ncnc(C)c1-c1cc(NC(=O)c2ccnn2C)ccc1O[C@@H]1CCCNC1` [Compound 417, (R)—N-(3-(4,6-dimethylpyrimidin-5-yl)-4-(piperidin-3-yloxy)phenyl)-1-methyl-1H-pyrazole-5-carboxamide], the Ki at 5-HT2A [1] worked out at 40.3 nM. For the compound `Cc1ncnc(C)c1-c1cc(NC(=O)C2CC2)ccc1O[C@@H]1CCCNC1` [Compound 418, (R)—N-(3-(4,6-dimethylpyrimidin-5-yl)-4-(piperidin-3-yloxy)phenyl)cyclopropanecarboxamide], the inhibitory constant (Ki) on 5-HT2A [1] came to 7.29 nM. As to `Cc1ncnc(C)c1-c1cc(NC(=O)C2CC2)ccc1O[C@H]1CCCNC1` [Compound 419, (S)—N-(3-(4,6-dimethylpyrimidin-5-yl)-4-(piperidin-3-yloxy)phenyl)cyclopropanecarboxamide], the Ki at 5-HT2A [1] worked out at 443 nM. On the same count and under the same terms, the result for `Cc1ncnc(C)c1-c1cc(NC(=O)C2CC2)ccc1OC[C@@H]1CCCCN1` [Compound 420, N-[3-(4,6-dimethylpyrimidin-5-yl)-4-[[(2S)-2-piperidyl]methoxy]phenyl]cyclopropanecarboxamide] reads 92.7 nM; that for `Cc1ncnc(C)c1-c1cc(NC(=O)C2CC2)ccc1OC[C@H]1CCCCN1` [Compound 421], 9.41 nM; that for `Cc1ncnc(C)c1-c1cc(NC(=O)[C@@H]2C[C@H]2F)ccc1OC[C@H]1CCCCN1` [Compound 422, (1S,2R)—N-[3-(4,6-dimethylpyrimidin-5-yl)-4-[[(2R)-2-piperidyl]methoxy]phenyl]-2-fluoro-cyclopropanecarboxamide], 4.58 nM. Same read-out and setting: the same measure for `Cc1ncnc(C)c1-c1cc(NC(=O)[C@H]2C[C@H]2F)ccc1OC[C@H]1CCCCN1` [Compound 423, (1R,2R)—N-(3-(4,6-dimethylpyrimidin-5-yl)-4-(((R)-piperidin-2-yl)methoxy)phenyl)-2-fluorocyclopropane-1-carboxamide]: 16.2 nM; for `Cc1ncnc(C)c1-c1cc(NC(=O)[C@@H]2C[C@@H]2F)ccc1OC[C@H]1CCCCN1` [Compound 424, (1S,2S)—N-(3-(4,6-dimethylpyrimidin-5-yl)-4-(((R)-piperidin-2-yl)methoxy)phenyl)-2-fluorocyclopropane-1-carboxamide]: 12.5 nM; for `Cc1ncsc1C(=O)Nc1ccc(OC[C@H]2CCCCN2)c(-c2c(C)ncnc2C)c1` [Compound 425, (R)—N-(3-(4,6-dimethylpyrimidin-5-yl)-4-(piperidin-2-ylmethoxy)phenyl)-4-methylthiazole-5-carboxamide]: 43.8 nM. For `Cc1nc(C)c(C(=O)Nc2ccc(OC[C@H]3CCCCN3)c(-c3c(C)ncnc3C)c2)s1` [Compound 426, (R)—N-(3-(4,6-dimethylpyrimidin-5-yl)-4-(piperidin-2-ylmethoxy)phenyl)-2,4-dimethylthiazole-5-carboxamide], the Ki on 5-HT2A [1] came to 87.2 nM. Regarding `Cc1cnoc1C(=O)Nc1ccc(OC[C@H]2CCCCN2)c(-c2c(C)ncnc2C)c1` [Compound 427, (R)—N-(3-(4,6-dimethylpyrimidin-5-yl)-4-(piperidin-2-ylmethoxy)phenyl)-4-methylisoxazole-5-carboxamide], the Ki at 5-HT2A [1] is 27.2 nM. On to `Cc1ncoc1C(=O)Nc1ccc(OC[C@H]2CCCCN2)c(-c2c(C)ncnc2C)c1` [Compound 428, (R)—N-(3-(4,6-dimethylpyrimidin-5-yl)-4-(piperidin-2-ylmethoxy)phenyl)-4-methyloxazole-5-carboxamide], for which, at 5-HT2A [1], the Ki came out at 35.3 nM.

With `Cc1ncnc(C)c1-c1cc(NC(=O)c2cnoc2)ccc1OC[C@H]1CCCCN1` [Compound 429, (R)—N-(3-(4,6-dimethylpyrimidin-5-yl)-4-(piperidin-2-ylmethoxy)phenyl)isoxazole-4-carboxamide], the inhibitory constant (Ki) on 5-HT2A [1] is 131 nM. With `Cc1nocc1C(=O)Nc1ccc(OC[C@H]2CCCCN2)c(-c2c(C)ncnc2C)c1` [Compound 430, (R)—N-(3-(4,6-dimethylpyrimidin-5-yl)-4-(piperidin-2-ylmethoxy)phenyl)-3-methylisoxazole-4-carboxamide], at 5-HT2A [1], the inhibition constant Ki is 21.6 nM.

As to `Cc1ncnc(C)c1-c1cc(NC(=O)c2cnoc2C)ccc1OC[C@H]1CCCCN1` [Compound 431, (R)—N-(3-(4,6-dimethylpyrimidin-5-yl)-4-(piperidin-2-ylmethoxy)phenyl)-5-methylisoxazole-4-carboxamide], the Ki on 5-HT2A [1] worked out at 54.9 nM. `Cc1ncnc(C)c1-c1cc(NC(=O)c2ncoc2C)ccc1OC[C@H]1CCCCN1` [Compound 432, (R)—N-(3-(4,6-dimethylpyrimidin-5-yl)-4-(piperidin-2-ylmethoxy)phenyl)-5-methyloxazole-4-carboxamide]: on 5-HT2A [1], the Ki worked out at 19.1 nM. On to `Cc1ncnc(C)c1-c1cc(NC(=O)c2cnsc2)ccc1OC[C@H]1CCCCN1` [Compound 433, (R)—N-(3-(4,6-dimethylpyrimidin-5-yl)-4-(piperidin-2-ylmethoxy)phenyl) isothiazole-4-carboxamide], for which the inhibition constant Ki at 5-HT2A [1] was determined as 9.98 nM. In the case of `Cc1nscc1C(=O)Nc1ccc(OC[C@H]2CCCCN2)c(-c2c(C)ncnc2C)c1` [Compound 434, (R)—N-(3-(4,6-dimethylpyrimidin-5-yl)-4-(piperidin-2-ylmethoxy)phenyl)-3-methylisothiazole-4-carboxamide], at 5-HT2A [1], the Ki amounted to 19.3 nM. On to `Cc1ncnc(C)c1-c1cc(NC(=O)c2ccnn2C)ccc1OC[C@H]1CCCCN1` [Compound 437, N-[3-(4,6-dimethylpyrimidin-5-yl)-4-[[(2R)-2-piperidyl]methoxy]phenyl]-2-methyl-pyrazole-3-carboxamide], for which, on 5-HT2A [1], the Ki worked out at 10.7 nM. Same read-out and setting: the result for `COC1(C(=O)Nc2ccc(OC[C@H]3CCCCN3)c(-c3c(C)ncnc3C)c2)CC1` [Compound 439, (R)—N-(3-(4,6-dimethylpyrimidin-5-yl)-4-(piperidin-2-ylmethoxy)phenyl)-1-methoxycyclopropane-1-carboxamide] reads 14.6 nM; that for `Cc1ncnc(C)c1-c1cc(NC(=O)C2(O)CC2)ccc1OC[C@H]1CCCCN1` [Compound 440, (R)—N-(3-(4,6-dimethylpyrimidin-5-yl)-4-(piperidin-2-ylmethoxy)phenyl)-1-hydroxycyclopropane-1-carboxamide], 65.1 nM; that for `Cc1ncnc(C)c1-c1cc(NC(=O)[C@H](F)C(C)C)ccc1OC[C@H]1CCCCN1` [Compound 442, (R)—N-(3-(4,6-dimethylpyrimidin-5-yl)-4-(((R)-piperidin-2-yl)methoxy)phenyl)-2-fluoro-3-methylbutanamide], 17.1 nM.

For the compound `Cc1ncnc(C)c1-c1cc(NC(=O)[C@@H](F)C(C)C)ccc1OC[C@H]1CCCCN1` [Compound 443, (S)—N-(3-(4,6-dimethylpyrimidin-5-yl)-4-(((R)-piperidin-2-yl)methoxy)phenyl)-2-fluoro-3-methylbutanamide], the Ki on 5-HT2A [1] was 18.8 nM. Regarding `Cc1ncnc(C)c1-c1cc(NC(=O)C2(F)CCOCC2)ccc1OC[C@H]1CCCCN1` [Compound 445, (R)—N-(3-(4,6-dimethylpyrimidin-5-yl)-4-(piperidin-2-ylmethoxy)phenyl)-4-fluorotetrahydro-2H-pyran-4-carboxamide], the Ki on 5-HT2A [1] was 63.3 nM. Turning to `Cc1ncnc(C)c1-c1cc(NC(=O)c2ccccc2)ccc1OC[C@H]1CCCCN1` [Compound 448, (R)—N-(3-(4,6-dimethylpyrimidin-5-yl)-4-(piperidin-2-ylmethoxy)phenyl)benzamide], the Ki at 5-HT2A [1] amounted to 1.7 nM. With `Cc1ncnc(C)c1-c1cc(NC(=O)c2cccc(F)c2)ccc1OC[C@H]1CCCCN1` [Compound 449, (R)—N-(3-(4,6-dimethylpyrimidin-5-yl)-4-(piperidin-2-ylmethoxy)phenyl)-3-fluorobenzamide], the Ki at 5-HT2A [1] turned out to be 6.49 nM. Take `COc1cccc(C(=O)Nc2ccc(OC[C@H]3CCCCN3)c(-c3c(C)ncnc3C)c2)c1` [Compound 450, (R)—N-(3-(4,6-dimethylpyrimidin-5-yl)-4-(piperidin-2-ylmethoxy)phenyl)-3-methoxybenzamide]: the inhibition constant (Ki) at 5-HT2A [1] is 1.03 nM. Regarding `CC(=N)NCCOc1ccc(NC(=O)C2CC2)cc1-c1c(C)ncnc1C` [Compound 451, N-(4-(2-acetimidamidoethoxy)-3-(4,6-dimethylpyrimidin-5-yl)phenyl)cyclopropanecarboxamide], at 5-HT2A [1], the Ki was found to be 52.6 nM. Regarding `Cc1ncnc(C)c1-c1cc(NC(=O)C2(F)CC2)ccc1O[C@@H]1CCCNC1` [Compound 452, (R)—N-(3-(4,6-dimethylpyrimidin-5-yl)-4-(piperidin-3-yloxy)phenyl)-1-fluorocyclopropane-1-carboxamide], the Ki on 5-HT2A [1] was 15 nM.
